Measured values reported in US20100267561A1, “HERBICIDAL PYRIDAZINONE DERIVATIVES” (priority 2007, published 2010).

Tests used:
Assay type in all cases: in vivo
[1] = system: giant foxtail (Setaria faberi); experiment: Test A pre-/postemergence plant response
In short: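 Ratings are visual, 0–100, where 100 means complete control and 0 no effect, taken roughly 10 days after treatment by comparison with untreated controls. Formulation: non-phytotoxic solvent mixture with surfactant.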

[2] = system: pigweed (Amaranthus retroflexus); experiment: Test B pre-/postemergence plant response; conditions: for Pigweed plant response rating: 8 g ai/ha
In short: (§1)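 Preemergence and postemergence (plants 2-18 cm, 1- to 4-leaf stage) applications used test chemicals in a non-phytotoxic solvent with surfactant. Plants were held in a greenhouse 13 to 15 days, then rated visually against controls on a 0-100 scale (0 no effect, 100 complete control).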

[3] = system: velvetleaf (Abutilon theophrasti); experiment: Test B pre-/postemergence plant response; conditions: for Velvetleaf plant response rating: 8 g ai/ha
In short: as §1

[4] = system: common (oilseed) sunflower (Helianthus annuus); experiment: Test B pre-/postemergence plant response; conditions: Preemergence
In short: as §1

[5] = system: blackgrass (Alopecurus myosuroides); experiment: Test B pre-/postemergence plant response; conditions: for Blackgrass plant response rating: 8 g ai/ha
In short: as §1

[6] = system: downy bromegrass (Bromus tectorum); experiment: Test B pre-/postemergence plant response; conditions: for Bromegrass, Downy plant response rating: 8 g ai/ha
In short: as §1

[7] = system: soybean (Glycine max); experiment: Test B pre-/postemergence plant response; conditions: for Soybean plant response rating: 8 g ai/ha
In short: as §1

[8] = system: johnsongrass (Sorghum halepense); experiment: Test B pre-/postemergence plant response; conditions: for Johnsongrass plant response rating: 8 g ai/ha
In short: as §1

[9] = system: goosegrass (Eleusine indica); experiment: Test B pre-/postemergence plant response; conditions: for Goosegrass plant response rating: 8 g ai/ha
In short: as §1

[10] = system: giant foxtail (Setaria faberii); experiment: Test B pre-/postemergence plant response; conditions: for Foxtail, Giant plant response rating: 8 g ai/ha
In short: as §1

[11] = system: bermudagrass (Cynodon dactylon); experiment: Test B pre-/postemergence plant response; conditions: for Bermudagrass plant response rating: 8 g ai/ha
In short: as §1

[12] = system: wheat (Triticum aestivum); experiment: Test B pre-/postemergence plant response; conditions: for Wheat plant response rating: 8 g ai/ha
In short: as §1

[13] = Postemergence, 16 g ai/ha, scale 0 to 100
[14] = Postemergence, 31 g ai/ha, scale 0 to 100, 0 no effect, 100 complete control
[15] = Postemergence, 62 g ai/ha, scale 0 to 100, 0 no effect, 100 complete control
[16] = Preemergence, 16 g ai/ha, scale 0 to 100 (0 no effect, 100 complete control)
[17] = Preemergence, 31 g ai/ha, scale 0 to 100 (0 no effect, 100 complete control)
[18] = Preemergence, 62 g ai/ha, scale 0 to 100
[19] = Preemergence, 62 g ai/ha, 0 to 100 scale, 0 no effect, 100 complete control
[20] = Preemergence, 31 g ai/ha, 0 to 100 scale, 0 no effect, 100 complete control

CCc1cc(-c2ccc(Cl)cc2)nn1-c1c(OC(=O)C(C)(C)C)cnn(C)c1=O [Compound 40]
Plant response rating, Foxtail, Giant ([1]; Postemergence, 31 g ai/ha, 0 to 100 scale (0 no effect, 100 complete control)): 100 | Plant response rating, Foxtail, Giant ([1]; Postemergence, 125 g ai/ha, 0 to 100 scale, 0 no effect, 100 complete control): 100 | Plant response rating, Foxtail, Giant ([1]; Preemergence, 31 g ai/ha, 0 to 100 scale, 0 is no effect, 100 is complete control): 100 | Plant response rating, Foxtail, Giant ([1]; Preemergence, 125 g ai/ha, 0 to 100 scale (0 no effect, 100 complete control)): 100 | Pigweed plant response rating ([2]; postemergence, 0-100 scale): 0 | Plant response rating, Pigweed [2, 13]: 0 | Plant response rating, Pigweed [2, 14]: 0 | Plant response rating, Pigweed [2, 15]: 0 | Plant response rating, Pigweed [2, 16]: 0 | Plant response rating, Pigweed [2, 17]: 0 | Plant response rating, Pigweed [2, 18]: 0 | Pigweed plant response rating ([2]; Preemergence, scale 0 to 100): 0 | Velvetleaf plant response rating ([3]; postemergence, 0-100 scale): 0 | Plant response rating, Velvetleaf [3, 13]: 0 | Plant response rating, Velvetleaf [3, 15]: 0 | Plant response rating, Velvetleaf [3, 16]: 0 | Plant response rating, Velvetleaf [3, 17]: 0 | Plant response rating, Velvetleaf [3, 19]: 0 | Velvetleaf plant response rating ([3]; Preemergence, scale 0 to 100): 0 | Plant response rating, Sunflower ([4]; 16 g ai/ha, scale 0 to 100 (0 no effect, 100 complete control)): 0 | Plant response rating, Sunflower ([4]; 31 g ai/ha, scale 0 to 100 (0 no effect, 100 complete control)): 0 | Plant response rating, Sunflower ([4]; 62 g ai/ha, scale 0 to 100): 0 | Sunflower plant response rating ([4]; 8 g ai/ha, scale 0 to 100): 0 | Blackgrass plant response rating ([5]; postemergence, 0-100 scale): 85 | Plant response rating, Blackgrass [5, 13]: 90 | Plant response rating, Blackgrass [5, 14]: 90 | Plant response rating, Blackgrass [5, 15]: 90 | Plant response rating, Blackgrass [5, 16]: 95 | Plant response rating, Blackgrass [5, 20]: 95 | Plant response rating, Blackgrass [5, 18]: 95 | Blackgrass plant response rating ([5]; Preemergence, scale 0 to 100): 95 | Bromegrass, Downy plant response rating ([6]; postemergence, 0-100 scale): 50 | Plant response rating, Bromegrass, Downy [6, 13]: 60 | Plant response rating, Bromegrass, Downy [6, 14]: 80 | Plant response rating, Bromegrass, Downy [6, 15]: 100 | Plant response rating, Bromegrass, Downy [6, 16]: 60 | Plant response rating, Bromegrass, Downy [6, 20]: 80 | Plant response rating, Bromegrass, Downy [6, 18]: 90 | Bromegrass, Downy plant response rating ([6]; Preemergence, scale 0 to 100): 0 | Soybean plant response rating ([7]; postemergence, 0-100 scale): 0 | Plant response rating, Soybean [7, 13]: 0 | Plant response rating, Soybean [7, 15]: 0 | Plant response rating, Soybean [7, 16]: 0 | Plant response rating, Soybean [7, 17]: 0 | Plant response rating, Soybean [7, 18]: 0 | Soybean plant response rating ([7]; Preemergence, scale 0 to 100): 0 | Johnsongrass plant response rating ([8]; postemergence, 0-100 scale): 0 | Plant response rating, Johnsongrass [8, 13]: 0 | Plant response rating, Johnsongrass [8, 14]: 98 | Plant response rating, Johnsongrass [8, 15]: 100 | Plant response rating, Johnsongrass [8, 16]: 95 | Plant response rating, Johnsongrass [8, 20]: 98 | Plant response rating, Johnsongrass [8, 18]: 98 | Johnsongrass plant response rating ([8]; Preemergence, scale 0 to 100): 90 | Goosegrass plant response rating ([9]; postemergence, 0-100 scale): 60 | Plant response rating, Goosegrass [9, 13]: 75 | Plant response rating, Goosegrass [9, 14]: 80 | Plant response rating, Goosegrass [9, 15]: 100 | Plant response rating, Goosegrass [9, 16]: 100 | Plant response rating, Goosegrass [9, 20]: 100 | Plant response rating, Goosegrass [9, 18]: 100 | Goosegrass plant response rating ([9]; Preemergence, scale 0 to 100): 98 | Foxtail, Giant plant response rating ([10]; postemergence, 0-100 scale): 100 | Plant response rating, Foxtail, Giant [10, 13]: 100 | Plant response rating, Foxtail, Giant [10, 14]: 100 | Plant response rating, Foxtail, Giant [10, 15]: 100 | Plant response rating, Foxtail, Giant [10, 16]: 100 | Plant response rating, Foxtail, Giant [10, 20]: 100 | Plant response rating, Foxtail, Giant [10, 18]: 100 | Foxtail, Giant plant response rating ([10]; Preemergence, scale 0 to 100): 100 | Bermudagrass plant response rating ([11]; postemergence, 0-100 scale): 0 | Plant response rating, Bermudagrass [11, 13]: 60 | Plant response rating, Bermudagrass [11, 14]: 65 | Plant response rating, Bermudagrass [11, 15]: 98 | Bermudagrass plant response rating ([11]; Preemergence, scale 0 to 100 (0 no effect, 100 complete control)): 0 | Plant response rating, Bermudagrass [11, 16]: 90 | Plant response rating, Bermudagrass [11, 20]: 100 | Plant response rating, Bermudagrass [11, 18]: 100 | Wheat plant response rating ([12]; postemergence, 0-100 scale): 70 | Plant response rating, Wheat [12, 13]: 70 | Plant response rating, Wheat [12, 15]: 100 | Plant response rating, Wheat [12, 16]: 60 | Plant response rating, Wheat [12, 17]: 60 | Plant response rating, Wheat [12, 19]: 90 | Wheat plant response rating ([12]; Preemergence, scale 0 to 100): 5
